According to BindingDB's records for doi:10.1016/j.bmcl.2009.03.129 (Wyeth Research, 2009):

Target: 3-phosphoinositide-dependent protein kinase 1 (PDPK1) (Homo sapiens) (UniProt O15530)
Assay: Inhibition of PDK1

For `CCOC(=O)c1cnn2c(-c3cccc(NC(=O)c4cccc(C(F)(F)F)c4)c3)ccnc12` [ethyl 7-(3-(3-(trifluoromethyl)benzamido)phenyl)pyrazolo[1,5-a]pyrimidine-3-carboxylate], the IC50 was > 10 µM.
